Experimental data: PubChem BioAssay (NCI)
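Following 48 hours of exposure in 96-well plates, responses at five concentrations were used to interpolate endpoints linearly. TGI marks complete inhibition of growth.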

Key:
Assay in all cases: growth of human tumour cells (NCI), 48 h
HCC-2998 colon = system: HCC-2998 colon
HT29 colon = system: HT29 colon
M14 melanoma = system: M14 melanoma
SK-MEL-2 melanoma = system: SK-MEL-2 melanoma
A549 NSCLC = system: A549 NSCLC
SK-MEL-28 melanoma = system: SK-MEL-28 melanoma
SN12C renal = system: SN12C renal
SF-268 CNS = system: SF-268 CNS
SNB-19 CNS = system: SNB-19 CNS
IGROV1 ovarian = system: IGROV1 ovarian
OVCAR-3 ovarian = system: OVCAR-3 ovarian
786-0 renal = system: 786-0 renal
RXF 393 renal = system: RXF 393 renal
CAKI-1 renal = system: CAKI-1 renal
U251 CNS = system: U251 CNS
XF 498 CNS = system: XF 498 CNS
MOLT-4 leukemia = system: MOLT-4 leukemia
DLD-1 colon = system: DLD-1 colon
SK-OV-3 ovarian = system: SK-OV-3 ovarian
CCRF-CEM leukemia = system: CCRF-CEM leukemia
MCF7 breast = system: MCF7 breast
KM20L2 colon = system: KM20L2 colon
NCI-H226 lung = system: NCI-H226 lung
OVCAR-8 ovarian = system: OVCAR-8 ovarian
BT-549 breast = system: BT-549 breast
DMS 273 small cell lung = system: DMS 273 small cell lung
M19-MEL melanoma = system: M19-MEL melanoma
SK-MEL-5 melanoma = system: SK-MEL-5 melanoma
SW-620 colon = system: SW-620 colon
MDA-MB-231 breast = system: MDA-MB-231 breast
HOP-18 NSCLC = system: HOP-18 NSCLC
UACC-62 melanoma = system: UACC-62 melanoma
HCT-116 colon = system: HCT-116 colon
K-562 leukemia = system: K-562 leukemia
ACHN renal = system: ACHN renal
T-47D breast = system: T-47D breast
SNB-75 CNS = system: SNB-75 CNS
OVCAR-4 ovarian = system: OVCAR-4 ovarian
NCI-H460 lung = system: NCI-H460 lung
UACC-257 melanoma = system: UACC-257 melanoma
KM12 colon = system: KM12 colon
HS 578T breast = system: HS 578T breast
LOX IMVI melanoma = system: LOX IMVI melanoma
TK-10 renal = system: TK-10 renal
SNB-78 CNS = system: SNB-78 CNS
LXFL 529 NSCLC = system: LXFL 529 NSCLC
NCI/ADR-RES ovarian = system: NCI/ADR-RES ovarian
RPMI-8226 leukemia = system: RPMI-8226 leukemia
SR leukemia = system: SR leukemia
MDA-MB-435 = system: MDA-MB-435
SF-539 CNS = system: SF-539 CNS
NCI-H23 lung = system: NCI-H23 lung
DMS 114 small cell lung = system: DMS 114 small cell lung
DU-145 prostate = system: DU-145 prostate
COLO 205 colon = system: COLO 205 colon
NCI-H522 lung = system: NCI-H522 lung
HOP-92 NSCLC = system: HOP-92 NSCLC
EKVX NSCLC = system: EKVX NSCLC
OVCAR-5 ovarian = system: OVCAR-5 ovarian
HCT-15 colon = system: HCT-15 colon
PC-3 prostate = system: PC-3 prostate
HL-60(TB) leukemia = system: HL-60(TB) leukemia
UO-31 renal = system: UO-31 renal
SF-295 CNS = system: SF-295 CNS
HOP-62 NSCLC = system: HOP-62 NSCLC
RXF-631 renal = system: RXF-631 renal
MDA-N = system: MDA-N
MALME-3M melanoma = system: MALME-3M melanoma
A498 renal = system: A498 renal

## CCOC1c2cc(OC)c(OC)cc2-c2ccc3ccccc3c2N1C (stereo not given)
HCC-2998 colon
  TGI: 31.3 µM
HT29 colon
  TGI: 46.6 µM
M14 melanoma
  TGI: 40.2 µM
SK-MEL-2 melanoma
  TGI: 28.6 µM
A549 NSCLC
  TGI: 52.7 µM
SK-MEL-28 melanoma
  TGI: 28.7 µM
SN12C renal
  TGI: 46.5 µM
SF-268 CNS
  TGI: 23.6 µM
SNB-19 CNS
  TGI: 54.7 µM
IGROV1 ovarian
  TGI: 63.3 µM
OVCAR-3 ovarian
  TGI: 50.9 µM
786-0 renal
  TGI: > 64.6 µM
RXF 393 renal
  TGI: 58.5 µM
CAKI-1 renal
  TGI: > 79.7 µM
U251 CNS
  TGI: 33 µM
XF 498 CNS
  TGI: 31.8 µM
MOLT-4 leukemia
  TGI: > 82.7 µM
DLD-1 colon
  TGI: > 75.1 µM
SK-OV-3 ovarian
  TGI: 59 µM
CCRF-CEM leukemia
  TGI: > 100 µM
MCF7 breast
  TGI: 51 µM
KM20L2 colon
  TGI: > 90.5 µM
NCI-H226 lung
  TGI: 66.9 µM
OVCAR-8 ovarian
  TGI: 31.6 µM
BT-549 breast
  TGI: 28.6 µM
DMS 273 small cell lung
  TGI: 20.2 µM
M19-MEL melanoma
  TGI: 25.9 µM
SK-MEL-5 melanoma
  TGI: 30.8 µM
SW-620 colon
  TGI: 49.4 µM
MDA-MB-231 breast
  TGI: 36.6 µM
HOP-18 NSCLC
  TGI: > 100 µM
UACC-62 melanoma
  TGI: 26.8 µM
HCT-116 colon
  TGI: 17.7 µM
K-562 leukemia
  TGI: > 100 µM
ACHN renal
  TGI: > 87.5 µM
T-47D breast
  TGI: 67.1 µM
SNB-75 CNS
  TGI: 34.9 µM
OVCAR-4 ovarian
  TGI: 54.5 µM
NCI-H460 lung
  TGI: 35.5 µM
UACC-257 melanoma
  TGI: 42.1 µM
KM12 colon
  TGI: 21.1 µM
HS 578T breast
  TGI: 34.1 µM
LOX IMVI melanoma
  TGI: 41.5 µM
TK-10 renal
  TGI: 78.3 µM
SNB-78 CNS
  TGI: > 100 µM
LXFL 529 NSCLC
  TGI: 24.2 µM
NCI/ADR-RES ovarian
  TGI: 96.5 µM
RPMI-8226 leukemia
  TGI: > 88.7 µM
SR leukemia
  TGI: > 100 µM
MDA-MB-435
  TGI: 36.7 µM
SF-539 CNS
  TGI: 55.6 µM
NCI-H23 lung
  TGI: 28.1 µM
DMS 114 small cell lung
  TGI: 24.6 µM
DU-145 prostate
  TGI: 52.4 µM
COLO 205 colon
  TGI: 22.8 µM
NCI-H522 lung
  TGI: 18.3 µM
HOP-92 NSCLC
  TGI: 58.4 µM
EKVX NSCLC
  TGI: 56.3 µM
OVCAR-5 ovarian
  TGI: > 80.2 µM
HCT-15 colon
  TGI: > 83 µM
PC-3 prostate
  TGI: 21.6 µM
HL-60(TB) leukemia
  TGI: > 96.5 µM
UO-31 renal
  TGI: > 77.8 µM
SF-295 CNS
  TGI: > 75.9 µM
HOP-62 NSCLC
  TGI: 42.6 µM
RXF-631 renal
  TGI: > 56.8 µM
MDA-N
  TGI: 28.6 µM
MALME-3M melanoma
  TGI: 24.1 µM

## C/C1=C/C2OC(=O)C3(C)C2C(CC2(C)OC1=CC2=O)OC3(O)C(C)C (stereo not given)
A498 renal
  TGI: > 100 µM
HCC-2998 colon
  TGI: 48.8 µM
HT29 colon
  TGI: > 66.9 µM
M14 melanoma
  TGI: > 100 µM
SK-MEL-2 melanoma
  TGI: > 84.6 µM
A549 NSCLC
  TGI: > 100 µM
SK-MEL-28 melanoma
  TGI: > 100 µM
SN12C renal
  TGI: > 71.4 µM
SF-268 CNS
  TGI: > 65.9 µM
SNB-19 CNS
  TGI: > 74.4 µM
IGROV1 ovarian
  TGI: > 84.5 µM
OVCAR-3 ovarian
  TGI: > 64.9 µM
786-0 renal
  TGI: > 69.3 µM
RXF 393 renal
  TGI: > 70.5 µM
CAKI-1 renal
  TGI: 62 µM
U251 CNS
  TGI: > 54 µM
XF 498 CNS
  TGI: 41 µM
MOLT-4 leukemia
  TGI: > 100 µM
DLD-1 colon
  TGI: 87.8 µM
SK-OV-3 ovarian
  TGI: > 100 µM
CCRF-CEM leukemia
  TGI: > 73.4 µM
MCF7 breast
  TGI: > 100 µM
KM20L2 colon
  TGI: 43.2 µM
NCI-H226 lung
  TGI: > 78.6 µM
OVCAR-8 ovarian
  TGI: > 62.4 µM
BT-549 breast
  TGI: 24.9 µM
DMS 273 small cell lung
  TGI: > 100 µM
M19-MEL melanoma
  TGI: > 100 µM
SK-MEL-5 melanoma
  TGI: 55 µM
SW-620 colon
  TGI: 67.4 µM
MDA-MB-231 breast
  TGI: > 100 µM
HOP-18 NSCLC
  TGI: > 100 µM
UACC-62 melanoma
  TGI: 56.4 µM
HCT-116 colon
  TGI: > 100 µM
K-562 leukemia
  TGI: > 100 µM
ACHN renal
  TGI: > 100 µM
T-47D breast
  TGI: > 100 µM
SNB-75 CNS
  TGI: > 100 µM
OVCAR-4 ovarian
  TGI: > 55.3 µM
NCI-H460 lung
  TGI: > 100 µM
UACC-257 melanoma
  TGI: > 75.1 µM
KM12 colon
  TGI: > 60.3 µM
HS 578T breast
  TGI: > 100 µM
LOX IMVI melanoma
  TGI: > 100 µM
TK-10 renal
  TGI: > 100 µM
SNB-78 CNS
  TGI: > 100 µM
LXFL 529 NSCLC
  TGI: 93.1 µM
NCI/ADR-RES ovarian
  TGI: > 100 µM
RPMI-8226 leukemia
  TGI: > 86.1 µM
SR leukemia
  TGI: 65.7 µM
MDA-MB-435
  TGI: > 100 µM
SF-539 CNS
  TGI: > 89.6 µM
NCI-H23 lung
  TGI: > 54.1 µM
DMS 114 small cell lung
  TGI: 29.6 µM
DU-145 prostate
  TGI: > 100 µM
COLO 205 colon
  TGI: > 73 µM
NCI-H522 lung
  TGI: 35.7 µM
EKVX NSCLC
  TGI: > 100 µM
OVCAR-5 ovarian
  TGI: > 79.3 µM
HCT-15 colon
  TGI: > 63.1 µM
PC-3 prostate
  TGI: > 100 µM
HL-60(TB) leukemia
  TGI: 54.9 µM
UO-31 renal
  TGI: > 100 µM
SF-295 CNS
  TGI: > 78.7 µM
HOP-62 NSCLC
  TGI: > 100 µM
RXF-631 renal
  TGI: > 100 µM
MDA-N
  TGI: > 100 µM
MALME-3M melanoma
  TGI: 77.8 µM

## CCCCCCCCCC1CC(=O)Oc2cccc(O)c21 (stereo not given)
A498 renal
  TGI: 42 µM
HCC-2998 colon
  TGI: > 20.2 µM
HT29 colon
  TGI: 53.8 µM
M14 melanoma
  TGI: 49.6 µM
SK-MEL-2 melanoma
  TGI: > 72.7 µM
A549 NSCLC
  TGI: 83.4 µM
SK-MEL-28 melanoma
  TGI: > 70.9 µM
SN12C renal
  TGI: 15.7 µM
SF-268 CNS
  TGI: > 100 µM
SNB-19 CNS
  TGI: > 88.2 µM
IGROV1 ovarian
  TGI: 55.2 µM
OVCAR-3 ovarian
  TGI: 24.9 µM
786-0 renal
  TGI: 30.6 µM
RXF 393 renal
  TGI: 46.6 µM
CAKI-1 renal
  TGI: 76.3 µM
U251 CNS
  TGI: 25.4 µM
XF 498 CNS
  TGI: 49.7 µM
MOLT-4 leukemia
  TGI: > 85.3 µM
DLD-1 colon
  TGI: > 71 µM
SK-OV-3 ovarian
  TGI: > 92.2 µM
CCRF-CEM leukemia
  TGI: 77.1 µM
KM20L2 colon
  TGI: > 100 µM
NCI-H226 lung
  TGI: 99.5 µM
OVCAR-8 ovarian
  TGI: > 81.2 µM
DMS 273 small cell lung
  TGI: 19.3 µM
M19-MEL melanoma
  TGI: > 96.7 µM
SK-MEL-5 melanoma
  TGI: 35.2 µM
SW-620 colon
  TGI: > 69.4 µM
HOP-18 NSCLC
  TGI: 97.3 µM
UACC-62 melanoma
  TGI: 98.3 µM
HCT-116 colon
  TGI: > 100 µM
K-562 leukemia
  TGI: 66.3 µM
ACHN renal
  TGI: > 84.8 µM
SNB-75 CNS
  TGI: > 100 µM
OVCAR-4 ovarian
  TGI: > 78.3 µM
NCI-H460 lung
  TGI: 30.7 µM
UACC-257 melanoma
  TGI: > 100 µM
KM12 colon
  TGI: 39.1 µM
LOX IMVI melanoma
  TGI: 35.6 µM
TK-10 renal
  TGI: > 100 µM
SNB-78 CNS
  TGI: > 100 µM
LXFL 529 NSCLC
  TGI: 63.2 µM
RPMI-8226 leukemia
  TGI: 83.4 µM
SR leukemia
  TGI: 64.2 µM
SF-539 CNS
  TGI: 71.7 µM
NCI-H23 lung
  TGI: 84.2 µM
DMS 114 small cell lung
  TGI: 45.7 µM
COLO 205 colon
  TGI: 31.3 µM
NCI-H522 lung
  TGI: 45.3 µM
HOP-92 NSCLC
  TGI: > 70.3 µM
EKVX NSCLC
  TGI: > 84.6 µM
OVCAR-5 ovarian
  TGI: > 85.4 µM
HCT-15 colon
  TGI: 57.1 µM
HL-60(TB) leukemia
  TGI: 62 µM
UO-31 renal
  TGI: 75.1 µM
SF-295 CNS
  TGI: > 83.3 µM
HOP-62 NSCLC
  TGI: 80.9 µM
RXF-631 renal
  TGI: 20.2 µM
MALME-3M melanoma
  TGI: 38.1 µM
